The text below walks through data of patent publication US6455250B1, “Endonuclease compositions and methods of use” (The Regents of the University of California, priority 1997, dated 2002).

Entries after “also recorded” stand apart in the source; their conditions may differ.

For data set [1], the target named is T1, Endo-SR (Mus musculus, UniProt P56542).
T1 construct: All nuclease assays were performed with Fraction IV enzyme (see below) as the source for Endo-SR activity, unless otherwise specified; endogenous in cells; host or cells: murine 38B9 pre-B cell line, nuclear extract, chromatographic Fraction IV (BioRex 70, 300 mM NaCl step)
T1 sequence (P56542 20-353): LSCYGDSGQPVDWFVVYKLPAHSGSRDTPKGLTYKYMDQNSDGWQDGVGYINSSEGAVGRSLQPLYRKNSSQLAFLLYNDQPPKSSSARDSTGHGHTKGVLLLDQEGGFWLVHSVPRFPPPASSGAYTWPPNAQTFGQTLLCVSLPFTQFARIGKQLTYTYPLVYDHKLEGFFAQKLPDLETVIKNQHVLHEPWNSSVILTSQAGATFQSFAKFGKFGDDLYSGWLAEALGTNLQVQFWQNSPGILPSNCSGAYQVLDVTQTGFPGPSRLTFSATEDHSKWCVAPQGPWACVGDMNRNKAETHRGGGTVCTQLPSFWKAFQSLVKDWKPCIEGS
The data set is described as follows: Effect of M^2+ species and EDTA on murine Endo-SR activity (Example 1, FIG. 3B). The class given is biochemical. As to the method: FIG. 3B. Effect of M^2+ species on Endo-SR activity. Nuclease assays were performed as previously described but with varied concentrations of different M^2+ species (or EDTA) replacing the standard (5 mM Mg^2+) assay condition. Activity values shown are expressed as percentages of an activity detected in a control assay (0 μM) containing no added M^2+ species.
Endonuclease assays were conducted in 10 μl reaction volumes containing 10 mM bis-Tris (pH6.5), 5 mM MgCl2, ˜250 pmoles of an end-labeled (^32P) DNA substrate, 1 μg of calf-thymus DNA, and 1 μl of an active Endo-SR fraction. […] All nuclease assays were performed with Fraction IV enzyme (see below) as the source for Endo-SR activity, unless otherwise specified. Nuclease assays performed for biochemical analysis of Endo-SR activity were conducted as described except for the addition or substitution of the test material. Reactions were incubated at 37° C. for 30 min, then mixed with an equal volume of formamide dye (Ausubel et al., 1987) and heated to 95° C. for 5 min prior to electrophoresis on an appropriate percentage (8-15%) sequencing gel. After electrophoresis, these gels were transferred to Whatman paper, dried, and exposed to film for 12-48 h. All detected cleavage products were compared to adjacent Maxam-Gilbert sequencing reactions, and adjusted one nucleotide 3′ to compensate for the removed base (Ausubel et al., 1987). After autoradiographic analysis, endonuclease activity was assayed by scintillation counting of intact substrate and specific cleavage products excised from the dried gel. End-labeled DNA substrates were prepared according to previously described methods (Hope et al., 1986).

Data set [2] addresses T2, bovine Endo-SR (Bos taurus, UniProt P56541).
T2 construct: Nuclear extracts for enzyme purification were generated from bovine spleen; from tissue; host or cells: bovine spleen nuclear extract, Fraction V (Superose-12)
T2 sequence (P56541 20-365): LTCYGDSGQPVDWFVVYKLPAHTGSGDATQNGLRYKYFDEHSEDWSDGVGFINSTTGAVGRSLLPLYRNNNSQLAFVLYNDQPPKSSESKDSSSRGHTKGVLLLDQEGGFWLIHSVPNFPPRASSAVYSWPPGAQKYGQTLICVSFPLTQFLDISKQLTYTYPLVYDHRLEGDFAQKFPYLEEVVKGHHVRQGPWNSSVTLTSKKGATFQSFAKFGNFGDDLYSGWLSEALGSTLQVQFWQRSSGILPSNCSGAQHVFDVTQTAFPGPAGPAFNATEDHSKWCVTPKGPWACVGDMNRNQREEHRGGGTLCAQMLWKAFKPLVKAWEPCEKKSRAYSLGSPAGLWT
The data set can be described thus: Effect of M^2+ cofactors and EDTA on bovine Endo-SR activity (FIG. 2B). The data set is classed as biochemical. Conditions: ≦50 μM. How it is done:
(§1) FIG. 2B. Effect of various common divalent metal cation (M^2+) species on Endo-SR activity. Nuclease reaction buffer used in these assays contained no Mg^2+, and nuclease reactions were adjusted to various M or EDTA concentrations. Nuclease assays performed with supplemental M^2+ or EDTA were pre-incubated for 30 min on ice prior to addition of the DNA substrate. Specific endonuclease activity values detected in these assays were normalized against nuclease reactions, which contained no supplemental M^2+ or EDTA, and expressed as percentages of this reaction activity. Bovine and murine enzyme activities are represented by open and closed symbols, respectively.
(§2) Endo-SR activity was assayed in 10 μl reactions containing 50 mM sodium acetate (pH 5.5), ˜150 mM NaCl, 0.5 mM MgCl2, ˜250 fmoles of end-labeled DNA substrate (see below), 1 μg sheared salmon sperm DNA, and 1 μl of a diluted Endo-SR fraction. All reactions performed with bovine Endo-SR used Fraction V material (Table 2). Murine Endo-SR used in these assays was purified essentially as previously described (Lyon et al., 1996). All nuclease assays were incubated at 37° C. for 30 min, then mixed with 10 μl of formamide dye and denatured at 95° C. for 5 min prior to size-fractionation on standard sequencing gels. Endo-SR activity values (fmol/min) were determined by quantitation of the radioactivity present in specific nuclease cleavage products and intact substrate (negative control) excised from the dried gel (Lyon et al., 1996). Nuclease assays used to characterize the activity parameters of murine and bovine Endo-SR were performed essentially as previously described (Lyon et al., 1996).

Data set [3] addresses T3, murine Endo-SR (Mus musculus, UniProt P56542).
T3 construct: Nuclease assays were performed with purified bovine nuclease (Fraction V) and partially purified murine Endo-SR (Lyon et al., 1996); endogenous in cells
T3 sequence (P56542 20-353): T1 sequence (P56542 20-353)
The data set is described as follows: Effect of M^2+ cofactors and EDTA on murine Endo-SR activity (Example 2, FIG. 2B). The class given is biochemical. Conditions: ≦50 μM. How it is done:
as §1, §2

Data set [4] has as its system switch recombination. Conditions: without demonstrably affecting cell proliferation or CH gene transcription; Loh et al., 1994a, 1995; cited from earlier work.
Data set [5] deals with the molecule itself. The data set can be described thus: native size exclusion chromatography (~35 000) compared with SDS-PAGE (Mr ~32 000).

As to `[Ca+2]` [Ca^2+], the “effect on Endo-SR activity” value in data set [1] (500 μM) is recorded as “significantly enhanced”.

As to `O=C(O)CN(CCN(CC(=O)O)CC(=O)O)CC(=O)O` [EDTA], the “inhibition of Endo-SR activity” value in data set [1] (5 mM) is given as about 40%. Also, the “effect on Endo-SR activity” value in data set [1] (50 mM) is “completely inhibited; also recorded: complete inhibition”. The “effect on nuclease activity at low concentrations” value (“effect on nuclease activity” for short) in data set [2] and in data set [3] was “relatively resistant” throughout.

With `[Mg+2]` [Mg^2+], the “effect on Endo-SR activity” value in data set [1] (500 μM) is “significantly enhanced; also recorded: maximal activity”. Besides, the “effect on nuclease activity” value in data set [2] and in data set [3] was “significant degree of enzyme inhibition” throughout.

As to `[Zn+2]` [Zn^2+], the results for the “inhibition of Endo-SR activity” value in data set [1] (50 μM) and in data set [1] (500 μM) were about 50% and about 95%, respectively. For the same molecule, the “effect on nuclease activity” value in data set [2] and in data set [3] was “significant degree of enzyme inhibition” throughout.

As to `O=C([O-])c1cc(=O)c2c(OCC(O)COc3cccc4oc(C(=O)[O-])cc(=O)c34)cccc2o1.[Na+].[Na+]` [disodium cromoglycolate], in data set [4], the “effect on switch rearrangement” value is listed as “dramatically repress switch rearrangement”.

Take `CCCc1c2oc(C(=O)O)cc(=O)c2cc2c(=O)cc(C(=O)O)n(CC)c12` [nedocromil sodium]: the “effect on switch rearrangement” value in data set [4] is recorded as “dramatically repress switch rearrangement”.

B1: purified bovine Endo-SR (Fraction V, from bovine spleen nuclear extract) (enzyme, UniProt P56541 20-365, looked up)
chain: T2 sequence (P56541 20-365)
notes: Native enzyme purified to homogeneity; also called bovine Endo-SR nuclease; Mr ~32 000 protein species
Consider B1, for which the binding result in data set [5] was “no binding”.
